Assays:
Format in all cases: cell-based
[1] = test system: human corneal endothelial cell; test: Primary culture of corneal endothelial cells in the presence of ascorbyl 2-phosphate; conditions: for Number of obtained cells in primary culture: Asc-2P(+) 100 μg/ml in basal medium, atelocollagen-coated dish
Method: Sclerocorneal segments prepared from 10 examples obtained from human eyes (from 14 to 69 years old) from Rocky Mountain Lions Eye Bank in a low temperature preservation state in a preservation solution (trade name: Optisol manufactured by Chiron corporation). The segments were 6 to 8 days old after death.
The sclerocorneal segments were transferred into a 35 mm petri dish, and the endothelial face was washed with DME medium containing 15% fetal calf serum (FCS) and 2 ng/ml basic fibroblast growth factor (bFGF) (hereinafter to be indicated as the basal medium).
Using ultrafine forceps, the corneal endothelium was peeled off in a sheet with the Descemet's membrane from the corneal inner periphery to the center and transferred into a 35 mm petri dish. The Descemet's membrane segment to which the corneal endothelial cells were attached was further cut into small pieces of about 2 mm square on the petri dish, and only the Descemet's slice pieces without attachment of a parenchymal tissue in a cottony form were recovered in a low adsorption centrifugation tube (manufactured by SUMITOMO BAKELITE Co., Ltd.), and incubated in the basal medium containing 0.2% collagenase (trade name: collagenase A, collagenase activity: >0.15 U/mg, manufactured by Roche K.K.) at 37° C., 5% CO2 for 1-3 hr.
The collagenase-treated cells were diluted with the basal medium, centrifugal washing (20 g, 2 min) was repeated three times, and the cells floating in the supernatant were removed. The cells were diluted with phosphate buffered saline (PBS), and centrifugal washing (20 g, 2 min) was performed once in the same manner. 0.5% Trypsin/0.2% ethylenediamine tetraacetic acid (EDTA) was added to the precipitated cell mass, and the mixture was incubated at 37° C., 5% CO2 for 5 min. The basal medium was added and the mixture was centrifuged (500 g, 5 min) to give cell pellets. The obtained cell pellets were resuspended in the basal medium containing 100 μg/ml ascorbyl 2-phosphate (manufactured by Wako Pure Chemical Industries, Ltd.) and the comparison basal medium without containing the same. The cells were each seeded on a dish prepared by the following method, and cultured in an incubator at 37° C., 5% CO2 for 2-4 weeks while exchanging the medium every 2-3 days.
5 mg/ml Atelocollagen (bovine dermis-derived acidic collagen solution, trade name: IAC-50, manufactured by KOKEN CO., LTD) was diluted 100-fold with 10 mM acetic acid, 1 ml thereof was added to a 35 mm dish, left standing at 37° C. for 1 hr, and washed twice with PBS (2 ml) to prepare a dish coated with atelocollagen.

[2] = test system: human corneal endothelial cell; test: Subculture of corneal endothelial cells (passage stability)
Method: The primary cultured cells (10 donors, 14- to 69-year-old) obtained in the above-mentioned 1 were each subcultured as follows.
The primary cultured cells were washed with PBS and dispersed in 0.5% trypsin/0.2% EDTA. The basal medium was added thereto, the mixture was centrifuged (500 g, 5 min), and suspended in the basal medium containing 100 μg/ml ascorbyl 2-phosphate and comparison basal medium without containing the same. The cells were seeded at 1000 cells/cm^2 on a dish coated with atelocollagen, which was prepared in the same manner as in the above-mentioned 1, and cultured at 37° C., 5% CO2. When the cells reached confluence, a similar passage operation was repeated.

[3] = test system: human corneal endothelial cell; test: Comparison with the conventional culture method on bovine corneal endothelial cell-producing extracellular substrate; conditions: FIG. 3
Description: According to a conventionally-known method (Miyata K, Drake J, Osakabe Y, Hosokawa Y, Hwang D, Soya K, Oshika T, Amano S. Cornea. 2001 20:59-63), a human corneal endothelial cell was isolated and cultured. The method is briefly described in the following. The cornea was transferred into a 35 mm petri dish, and the endothelial face was washed with the basal medium. Using ultrafine forceps, the corneal endothelium was peeled off in a sheet with Descemet's membrane from the corneal inner periphery to the center, and transferred into a 35 mm petri dish. The Descemet's membrane was further cut into small slice pieces of about 2 mm square on the petri dish, and placed with the endothelial surface facing downward on a dish coated with an extracellular substrate produced by corneal endothelial cells of a fetal calf. The dish was carefully moved into an incubator at 37° C., 5% CO2, and cultured for 2-3 weeks while exchanging the medium every 2-3 days.
In any passage, more cells were obtained in the ascorbyl 2-phosphate addition group, and the total cell number reached after completion of the three passage operations was higher when cultured in the basal medium containing ascorbyl 2-phosphate.

SMILES: O=C1O[C@H]([C@@H](O)CO)C(O)=C1OP(=O)(O)O [Asc-2P, ascorbyl 2-phosphate]
- Number of obtained cells in primary culture ([1]; donor No. 1, 27 days of culture): 59 ×10e4 cells
- Number of obtained cells in primary culture ([1]; donor No. 2, 21 days of culture): 32 ×10e4 cells
- Number of obtained cells in primary culture ([1]; donor No. 3, 21 days of culture): 35 ×10e4 cells
- Number of obtained cells in primary culture ([1]; donor No. 4, 22 days of culture): 39 ×10e4 cells
- Number of obtained cells in primary culture ([1]; donor No. 5, 26 days of culture): 66 ×10e4 cells
- Number of obtained cells in primary culture ([1]; donor No. 6, 22 days of culture): 27 ×10e4 cells
- Number of obtained cells in primary culture ([1]; donor No. 7, 26 days of culture): 60 ×10e4 cells
- Number of obtained cells in primary culture ([1]; donor No. 8, 23 days of culture): 308 ×10e4 cells
- Number of obtained cells in primary culture ([1]; donor No. 9, 24 days of culture): 405 ×10e4 cells
- Number of obtained cells in primary culture ([1]; donor No. 10, 29 days of culture): 20 ×10e4 cells
- Number of corneal endothelial cells on completion of the primary culture, versus no addition ([1]; all 10 donors (14 to 69 years old), 100 μg/ml): strikingly increased
- Cell form in primary culture ([1]; donor Nos. 5 and 7, basal medium containing ascorbyl 2-phosphate): flagstone-like cell images on the entire face of the culture dish
- Number of cells obtained on completion of the subculture, versus no addition ([2]; all 10 cases, 100 μg/ml, seeded at 1000 cells/cm^2, repeated subculture): higher
- Number of cells obtained on repeated subculture, addition group versus non-addition group ([2]; donor No. 8, FIG. 2 (a), (b)): higher
- Cell form on completion of 6 passages ([2]; donor No. 8, FIG. 2 (c)): maintained a flagstone-like form
- Proliferation efficiency versus conventional method [3]: higher proliferation efficiency
- Total cell number reached after completion of the three passage operations, versus conventional method ([3]; atelocollagen plus ascorbyl 2-phosphate versus bovine corneal endothelial cell-producing extracellular substrate): higher

Source: US20160257931A1, “METHOD FOR CULTURE OF CORNEAL ENDOTHELIAL CELLS, PROCESS FOR PRODUCTION OF CORNEAL ENDOTHELIAL CELL SHEET FOR TRANSPLANTATION PURPOSES, AND CULTURE KIT FOR CORNEAL ENDOTHELIAL CELLS” (CORNEA REGENERATION INSTITUTE CO., LTD., priority 2010, published 2016)
